Values of other authors as cited in publication PMC7904743, “WIDOCK: a reactive docking protocol for virtual screening of covalent inhibitors” (Journal of Computer-Aided Molecular Design, 2021).
Like-named read-outs stand apart in the source and are kept apart here.

How the values were obtained:
[1] = system: OTUB2; conditions: experimental actives if % labeling higher than 50%, cited from earlier work
[2] = system: NUDT7; conditions: protein labeling at 200 μM; experimental actives if % labeling higher than 50%; cited from earlier work
[3] = thiol reactivity, cited from earlier work
[4] = natural log of average rate constant k
[5] = natural logarithm of average rate constant
[6] = natural log of average kinetic rate constant
[7] = natural log of average rate constant

| Structure (SMILES) | OTUB2 % labeling [1] [%] | NUDT7 % labeling [2] [%] | ln(avg k) [3, 4] | ln(avg k) [3, 5] | OTUB2 % labeling ([1]; OTUB2 protein labeling) [%] | ln(avg k) [3, 6] | ln(avg k) [3, 7] |
| --- | --- | --- | --- | --- | --- | --- | --- |
| O=C(CCl)N1CCN(Cc2ccc3c(c2)OCO3)CC1 [PCM-0102397, O=C(CCl)N1CCN(Cc2ccc3c(c2)OCO3)CC1] | 0 | 0 | -15.445 | -15.445 | – | – | – |
| O=C(CCl)N1CCN(Cc2ccsc2)CC1 [PCM-0102739, O=C(CCl)N1CCN(Cc2ccsc2)CC1] | – | 7 | – | – | 0 | -15.640 | -15.640 |
| O=C(CCl)N1N=C(c2ccco2)CC1c1ccco1 (stereo not drawn) [PCM-0102380, O=C(CCl)N1N=C(c2ccco2)CC1c1ccco1] | 0 | 54 | -15.395 | -15.395 | – | – | – |
| Cc1c(C#N)c(NC(=O)CCl)n(C2CCCC2)c1C [PCM-0102183, Cc1c(C#N)c(NC(=O)CCl)n(C2CCCC2)c1C] | 0 | 28 | -15.991 | -15.991 | – | – | – |
| N#Cc1cccc(C(=O)NNC(=O)CCl)c1 [PCM-0102857, N#Cc1cccc(C(=O)NNC(=O)CCl)c1] | – | 0 | – | – | 41 | -16.900 | -16.900 |
| O=C(CCl)Nc1ccc2c(c1)OC(F)(F)O2 [PCM-0102738, O=C(CCl)Nc1ccc2c(c1)OC(F)(F)O2] | – | 0 | – | – | 41 | -15.810 | -15.810 |
| N#CC(c1ccc(F)cc1)N1CCN(C(=O)CCl)CC1 (stereo not drawn) [PCM-0102341, N#CC(c1ccc(F)cc1)N1CCN(C(=O)CCl)CC1] | 0 | 0 | -14.949 | -14.949 | – | – | – |
| O=C(CCl)N1CCN(CC(=O)N2CCCC2)CC1 [PCM-0102346, O=C(CCl)N1CCN(CC(=O)N2CCCC2)CC1] | 0 | 0 | -16.189 | -16.189 | – | – | – |
| O=C(CCl)NC1CCN(C(=O)C2CCCCC2)CC1 [PCM-0102931, O=C(CCl)NC1CCN(C(=O)C2CCCCC2)CC1] | – | 0 | – | – | 9 | -16.253 | -16.253 |
| CN(Cc1cccs1)C(=O)CCl [PCM-0102636, CN(Cc1cccs1)C(=O)CCl] | 0 | 17 | -15.483 | -15.483 | – | – | – |
| O=C(CCl)Nc1ccnn1C1CCCC1 [PCM-0102336, O=C(CCl)Nc1ccnn1C1CCCC1] | 19 | 0 | -15.629 | -15.629 | – | – | – |
| N#CC1(NC(=O)CCl)CCCCCC1 [PCM-0102465, N#CC1(NC(=O)CCl)CCCCCC1] | 0 | 0 | -16.080 | -16.080 | – | – | – |
| O=C(CCl)NNC(=O)CC1CCS(=O)(=O)C1 (stereo not drawn) [PCM-0102998, O=C(CCl)NNC(=O)CC1CCS(=O)(=O)C1] | – | 0 | – | – | 69 | -16.898 | -16.898 |
| O=C(CCl)NC(=O)NCC1COc2ccccc2O1 (stereo not drawn) [PCM-0102092, O=C(CCl)NC(=O)NCC1COc2ccccc2O1] | 0 | 0 | -15.940 | -15.940 | – | – | – |
| O=C(CCl)NC1CCOc2ccccc21 (stereo not drawn) [PCM-0102871, O=C(CCl)NC1CCOc2ccccc21] | – | 0 | – | – | 44 | -16.366 | -16.366 |
| O=C(Nc1ccccc1O)C1CCN(C(=O)CCl)CC1 [PCM-0102389, O=C(Nc1ccccc1O)C1CCN(C(=O)CCl)CC1] | 14 | 10 | -15.332 | -15.332 | – | – | – |
| CS(=O)(=O)c1cccc(NC(=O)CCl)c1 [PCM-0102407, CS(=O)(=O)c1cccc(NC(=O)CCl)c1] | 33 | 0 | -15.426 | -15.426 | – | – | – |
| CC(NC(=O)CCl)c1ccc2c(c1)OCCO2 (stereo not drawn) [PCM-0102342, CC(NC(=O)CCl)c1ccc2c(c1)OCCO2] | 57 | 8 | -16.412 | -16.412 | – | – | – |
| COc1ccccc1N1CCN(C(=O)CCl)CC1 [PCM-0102173, COc1ccccc1N1CCN(C(=O)CCl)CC1] | 0 | 0 | -15.826 | -15.826 | – | – | – |
| O=C(CCl)NCC#Cc1cccc(C(F)(F)F)c1 [PCM-0103011, O=C(CCl)NCC#Cc1cccc(C(F)(F)F)c1] | – | 0 | – | – | 84 | -16.650 | -16.650 |
| CN(CC1COc2ccccc2O1)C(=O)CCl (stereo not drawn) [PCM-0102756, CN(CC1COc2ccccc2O1)C(=O)CCl] | – | 16 | – | – | 6 | -15.581 | -15.581 |
